Laboratory results: US6359005B1, “Method for the treatment of mania and bipolar disorder” (Warner-Lambert Company, priority 1998, dated 2002)

How the values were obtained:
[1] = Metabolism in the body; settings: in vivo
[2] = Toxicity / tolerability of the compound; settings: in vivo
[3] = tested on: healthy subjects and patients suffering from anxiety; test: Studies of healthy subjects and patients suffering from anxiety; assay type: in vivo, human
Source text: This is a novel use for pregabalin which would not be obvious to a medical practitioner of ordinary skill.
This effect will be beneficial in acute mania and will also lead to reducing the risk for onset of a new episode of mania in a predisposed individual. Thus, the prophylactic use of pregabalin for bipolar disorder is also taught.

With `CC(C)C[C@H](CN)CC(=O)O` [Pregabalin, (S)-3-(aminomethyl)-5-methylhexanoic acid] the “Metabolism in the body” value [1] was “not metabolized in the body”, the Tolerability [2] was “well-tolerated” and the “Effects noted in subjects (sedation, calming)” value ([3]; healthy subjects and patients suffering from anxiety) was “sedative and calming effects”. For the same compound, the Effect on sleep ([3]; human, in vivo) was “enhance sleep”.
